Tests used:
[1] = molecular target: neutral endopeptidase (NEP, EC 3.4.24.11) (Homo sapiens, UniProt P08473); assay: NEP inhibition in vitro (IC50); assay type: biochemical
Description: (§1) The ACE inhibitory activity of the compounds of the present invention is determined via in vitro tests using standard test procedures for ACE inhibition well known to those skilled in the art. Similarly, NEP inhibitory activity is determined via in vitro tests using standard test procedures for NEP inhibition well known to those skilled in the art.

[2] = system: angiotensin I (AI) challenge; assay: A1 Challenge Assay; assay type: in vivo, male Sprague-Dawley rats
[3] = molecular target: angiotensin converting enzyme (ACE) (Homo sapiens, UniProt P12821); assay: ACE inhibition in vitro (IC50); assay type: biochemical
Description: as §1

Sequence of neutral endopeptidase (NEP, EC 3.4.24.11) (P08473 whole entry, species assumed): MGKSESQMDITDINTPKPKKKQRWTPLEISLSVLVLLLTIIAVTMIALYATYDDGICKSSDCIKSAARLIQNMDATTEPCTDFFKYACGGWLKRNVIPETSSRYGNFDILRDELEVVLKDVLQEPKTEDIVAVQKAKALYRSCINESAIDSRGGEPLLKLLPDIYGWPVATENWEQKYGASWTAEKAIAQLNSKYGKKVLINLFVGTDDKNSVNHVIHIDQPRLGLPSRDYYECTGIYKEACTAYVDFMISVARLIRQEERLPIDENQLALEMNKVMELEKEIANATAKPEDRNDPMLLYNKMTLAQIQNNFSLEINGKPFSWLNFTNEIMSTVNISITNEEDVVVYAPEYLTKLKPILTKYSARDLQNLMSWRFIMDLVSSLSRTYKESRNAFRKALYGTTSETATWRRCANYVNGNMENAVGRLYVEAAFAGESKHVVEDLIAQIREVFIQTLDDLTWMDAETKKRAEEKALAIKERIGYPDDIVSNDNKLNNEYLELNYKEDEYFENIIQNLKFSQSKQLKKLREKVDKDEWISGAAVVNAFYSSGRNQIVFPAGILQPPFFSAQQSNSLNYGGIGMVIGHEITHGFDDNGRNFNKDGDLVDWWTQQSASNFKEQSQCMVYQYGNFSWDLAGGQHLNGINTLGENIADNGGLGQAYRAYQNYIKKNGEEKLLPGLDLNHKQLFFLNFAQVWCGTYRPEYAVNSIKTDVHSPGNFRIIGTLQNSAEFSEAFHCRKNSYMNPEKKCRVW
Sequence of angiotensin converting enzyme (ACE) (P12821 30-1306, species assumed): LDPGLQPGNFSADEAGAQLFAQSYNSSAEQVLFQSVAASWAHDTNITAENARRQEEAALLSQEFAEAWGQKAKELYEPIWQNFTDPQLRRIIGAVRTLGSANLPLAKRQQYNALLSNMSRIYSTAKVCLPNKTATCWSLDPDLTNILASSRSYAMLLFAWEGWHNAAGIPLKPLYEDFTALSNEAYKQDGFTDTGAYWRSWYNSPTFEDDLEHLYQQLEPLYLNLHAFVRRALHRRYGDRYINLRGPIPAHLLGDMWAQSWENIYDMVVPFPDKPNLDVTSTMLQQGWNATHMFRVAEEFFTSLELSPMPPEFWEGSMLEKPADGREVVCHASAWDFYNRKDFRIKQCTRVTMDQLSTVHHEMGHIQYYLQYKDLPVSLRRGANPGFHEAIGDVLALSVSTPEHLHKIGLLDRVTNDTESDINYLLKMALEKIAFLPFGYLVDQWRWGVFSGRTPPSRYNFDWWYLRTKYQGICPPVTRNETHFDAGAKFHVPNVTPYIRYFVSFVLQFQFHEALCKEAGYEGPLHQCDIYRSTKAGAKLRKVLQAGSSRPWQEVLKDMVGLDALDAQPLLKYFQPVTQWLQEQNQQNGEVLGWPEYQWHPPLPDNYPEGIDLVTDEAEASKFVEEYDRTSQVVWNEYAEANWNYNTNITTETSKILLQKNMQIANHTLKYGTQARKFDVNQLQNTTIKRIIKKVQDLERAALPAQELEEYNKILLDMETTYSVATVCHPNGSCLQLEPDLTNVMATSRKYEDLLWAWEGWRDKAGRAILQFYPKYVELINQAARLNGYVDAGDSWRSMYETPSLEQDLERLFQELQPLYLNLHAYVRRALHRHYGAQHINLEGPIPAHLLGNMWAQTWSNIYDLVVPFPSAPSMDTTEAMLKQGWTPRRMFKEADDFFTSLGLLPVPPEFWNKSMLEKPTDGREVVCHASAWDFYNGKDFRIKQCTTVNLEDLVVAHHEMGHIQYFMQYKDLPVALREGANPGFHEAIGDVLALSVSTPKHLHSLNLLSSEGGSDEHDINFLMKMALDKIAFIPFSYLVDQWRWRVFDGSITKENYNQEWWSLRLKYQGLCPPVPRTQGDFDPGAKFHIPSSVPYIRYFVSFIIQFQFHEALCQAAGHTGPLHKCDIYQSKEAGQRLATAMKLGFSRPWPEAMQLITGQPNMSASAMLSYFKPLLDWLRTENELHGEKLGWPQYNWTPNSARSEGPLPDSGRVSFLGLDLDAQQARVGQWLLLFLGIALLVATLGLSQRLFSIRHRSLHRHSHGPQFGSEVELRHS

Q: Which results are given for `CN(C)C(=O)N[C@@H](CCCCNC(=O)OCc1ccccc1)C(=O)NC[C@H](CC1(C(=O)N[C@@H](Cc2ccc(O)cc2)C(=O)O)CCCC1)C(=O)O` [CbzNH C(O) (CH3)2 NH]?
A: IC50 [1]: 2 nM; A1 Chall. (% inhibition) ([2]; dose 30 sc): 88%; IC50 [3]: 450 nM

Q: With `NCCCC[C@H](NC(=O)N1CCOCC1)C(=O)NC[C@H](CC1(C(=O)N[C@@H](Cc2ccc(O)cc2)C(=O)O)CCCC1)C(=O)O` [NH2 C(O) drawing 39] as the compound, how does the IC50 [1] read?
A: 9 nM

Q: What about the IC50 [3] of the same compound?
A: 8 nM

Q: For `CN(C)S(=O)(=O)N[C@@H](CCCCN)C(=O)NC[C@H](CC1(C(=O)N[C@@H](Cc2ccc(O)cc2)C(=O)O)CCCC1)C(=O)O` [NH2 SO2 (CH3)2 NH], which IC50 [1] is on record?
A: 32 nM

Q: `COC(=O)N[C@@H](CCCCNC(=O)OCc1ccccc1)C(=O)NC[C@H](CC1(C(=O)N[C@@H](Cc2ccc(O)cc2)C(=O)O)CCCC1)C(=O)O` [CbzNH C(O) CH3 O] was tested. Which IC50 [1] did it give?
A: 8 nM

Q: And the “A1 Chall. (% inhibition)” value ([2]; dose 30 sc)?
A: 49%

Q: What about the IC50 [3] of the same compound?
A: 15 nM

Q: With `CS(=O)(=O)N(CCCNC(=O)OCc1ccccc1)CC(=O)NC[C@H](CC1(C(=O)N[C@@H](Cc2ccc(O)cc2)C(=O)O)CCCC1)C(=O)O` [CbzNH SO2 CH3] as the compound, how does the IC50 [1] read?
A: 2 nM

Q: And the “A1 Chall. (% inhibition)” value ([2]; dose 10 sc)?
A: 100%

Q: What about the IC50 [3] of the same compound?
A: 40 nM

Q: For `CS(=O)(=O)N(CCCN)CC(=O)NC[C@H](CC1(C(=O)N[C@@H](Cc2ccc(O)cc2)C(=O)O)CCCC1)C(=O)O` [NH2 SO2 CH3], which IC50 [1] is on record?
A: 1 nM

Q: What about the “A1 Chall. (% inhibition)” value ([2]; dose 30 sc) of the same compound?
A: 81%

Q: What about the IC50 [3] of the same compound?
A: 6 nM

Q: How did the IC50 [1] turn out when `CN(C)C(=O)N[C@@H](CCCCN)C(=O)NC[C@H](CC1(C(=O)N[C@@H](Cc2ccc(O)cc2)C(=O)O)CCCC1)C(=O)O` [NH2 C(O) (CH3)2 NH] was run?
A: 1 nM

Q: What about the IC50 [3] of the same compound?
A: 15 nM

Q: `O=C(NCCCC[C@H](NC(=O)N1CCOCC1)C(=O)NC[C@H](CC1(C(=O)N[C@@H](Cc2ccc(O)cc2)C(=O)O)CCCC1)C(=O)O)OCc1ccccc1` [CbzNH C(O) drawing 38] was tested. Which IC50 [1] did it give?
A: 2 nM

Q: And the IC50 [3]?
A: 2 nM

Q: `CN(C)S(=O)(=O)N[C@@H](CCCCNC(=O)OCc1ccccc1)C(=O)NC[C@H](CC1(C(=O)N[C@@H](Cc2ccc(O)cc2)C(=O)O)CCCC1)C(=O)O` [CbzNH SO2 (CH3)2 NH] was tested. Which IC50 [1] did it give?
A: 1 nM

Q: What about the IC50 [3] of the same compound?
A: 1 nM

Q: How did the IC50 [1] turn out when `COC(=O)N[C@@H](CCCCN)C(=O)NC[C@H](CC1(C(=O)N[C@@H](Cc2ccc(O)cc2)C(=O)O)CCCC1)C(=O)O` [NH2 C(O) CH3 O] was run?
A: 33 nM

Q: What about the “A1 Chall. (% inhibition)” value ([2]; dose 30 sc) of the same compound?
A: 92%

Q: What about the IC50 [3] of the same compound?
A: 60 nM

Reference: patent publication US5208236A, “N-(acylaminomethyl)glutaryl amino acids and use” (Schering Corporation, priority 1992, dated 1993)
